Legend:
TRKB = biological target: T1, TRKB (Homo sapiens, UniProt Q16620); assay: In vitro biochemical HTRF KinEASE kinase inhibition, TRKB; conditions: wild-type kinase, final ATP 2.56 μmol/L
T1 construct: purchased Carna Biosciences 08-187
Protocol: The material and the method are as follows: wild-type kinases such as TRKA, TRKB and TRKC, and mutant kinases such as TRKA-G595R, TRKA-G667C, TRKA-F589L, TRKC-G623R and TRKC-G696A, and are derived from Carna Biosciences 08-186, 08-187, 08-197; HTRF KinEASE TKkit (Cisbio 62TKO PEC); 384 well plates (Greiner corporation); ATP (Life technologies PV 3227), MgCl2 (sigma); PHERAstar FS Multifunctional microplate reader (BMG Co.); low speed centrifuge (StaiteXiangyi corporation); incubator (Binder company).
Preparing a compound working solution: the dispensed compounds were removed from the freezer prior to testing and diluted to 100× concentration with pure DMSO; then the compound was diluted to the desired concentration of 4× with deionized water;
Preparation of 1.33× enzyme buffer (enzyme buffer): 5× enzyme buffer (from HTRF kit) was diluted to 1.33× with deionized water and the corresponding ingredients were added at a final concentration of 1.33×: 1.33 mmol/L Dithiothreitol (DTT), 1.33 mmol/L MnCl2, 6.65 mmol/L MgCl2 and 39.9 nmol/L SEB;
Preparation of a kinase working solution: TRKA, TRKB and TRKC were diluted with 1.33× enzyme buffer to the required concentrations of 2× of 0.404 ng/μL, 0.304 ng/μL and 0.236 ng/μL, respectively;
Preparing a substrate working solution: a mixture of TK Substrate Blr diluted to the desired final concentration of 4× (from HTRF kit) and ATP (10 mM) with 1.33× enzyme buffer; the final ATP concentrations for TRKA, TRKB, and TRKC were: 3.727 μmol/L, 2.56 μmol/L and 2.526 μmol/L. The TK Substrate-biotin (from HTRF KinEASE TKkit) final concentrations were all: 0.2 μmol/L.
Preparing a detection working solution: 16.67 μmol/L of Streptavidin-XL665 (Streptavidin-XL 665) were diluted to the desired final concentration of 4× with HTRF test buffer and then mixed with an equal volume of Antibody-europium Cryptate (Antibody-Cryptate) (both from HTRF kits).
An enzyme reaction step: add 4 μL of kinase working solution to each well of a low volume 384 microwell plate along with 4 μL of 1.33× enzyme buffer as a Negative control (Negative); add 2 μl of compound working solution to the wells, while adding 2 μl of […] aqueous solution as a zero compound concentration control (i.e., Positive control, Positive); incubating at 25° C. for 5 min; add 2 μL of substrate working solution to the wells to start the enzymatic reaction, shake the reaction for 30 min at 37° C.
HTRF reagent detection step: adding […] to the hole to terminate the reaction; reacting for 1 h at 25° C.;
Reading of HTRF signal: the PHERAstar FS reading is adopted to detect signals, and the corresponding setting of the instrument is as follows:
For the raw data read out per well, the ratio=665 nm/620 nm;
Calculation of inhibition rate:
Calculation of IC50 values: with the logarithm of the compound concentration as abscissa and the inhibition as ordinate, a non-linear curve was fitted in GraphPad Prism 5: log (inhibitor) vs. response—Variable slope, and calculating the concentration of the compound to be detected, namely IC50, when the enzyme activity inhibition rate is 50%.

[1] = Drug metabolism study in rats, intravenous administration; conditions: rat, plasma, iv, 1 mg/kg
[2] = Drug metabolism study in rats, oral administration; conditions: rat
TRKA = biological target: T2, TRKA (Homo sapiens, UniProt P04629); assay: In vitro biochemical HTRF KinEASE kinase inhibition, TRKA; conditions: wild-type kinase, final ATP 3.727 μmol/L; read-out: TRKA IC50
T2 construct: purchased Carna Biosciences 08-186
T2 sequence (P04629 33-796): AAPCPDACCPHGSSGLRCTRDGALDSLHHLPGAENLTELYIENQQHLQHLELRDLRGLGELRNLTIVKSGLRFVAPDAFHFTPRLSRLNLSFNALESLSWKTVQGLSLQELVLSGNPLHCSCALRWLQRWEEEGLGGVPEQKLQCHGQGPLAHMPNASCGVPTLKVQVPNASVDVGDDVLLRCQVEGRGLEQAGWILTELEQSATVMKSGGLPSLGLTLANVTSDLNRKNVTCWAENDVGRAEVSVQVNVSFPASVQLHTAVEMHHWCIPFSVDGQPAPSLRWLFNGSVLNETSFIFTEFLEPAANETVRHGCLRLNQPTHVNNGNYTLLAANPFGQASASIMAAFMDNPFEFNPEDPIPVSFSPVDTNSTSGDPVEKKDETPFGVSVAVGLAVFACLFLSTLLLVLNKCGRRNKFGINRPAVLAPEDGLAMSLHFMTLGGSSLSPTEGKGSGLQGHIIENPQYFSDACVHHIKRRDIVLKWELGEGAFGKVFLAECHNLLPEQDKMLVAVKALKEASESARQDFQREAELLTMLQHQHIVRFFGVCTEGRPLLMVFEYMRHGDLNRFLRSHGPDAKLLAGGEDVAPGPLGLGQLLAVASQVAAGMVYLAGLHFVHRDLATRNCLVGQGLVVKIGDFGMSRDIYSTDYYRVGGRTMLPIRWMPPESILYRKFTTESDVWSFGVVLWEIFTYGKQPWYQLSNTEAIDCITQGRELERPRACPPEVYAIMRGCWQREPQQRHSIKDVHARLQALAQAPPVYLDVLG

TRKC = biological target: T3, TRKC (Homo sapiens, UniProt Q16288); assay: In vitro biochemical HTRF KinEASE kinase inhibition, TRKC; conditions: wild-type kinase, final ATP 2.526 μmol/L
T3 construct: purchased Carna Biosciences 08-197
T3 sequence (Q16288 32-825 isoform Q16288-3 limits assumed): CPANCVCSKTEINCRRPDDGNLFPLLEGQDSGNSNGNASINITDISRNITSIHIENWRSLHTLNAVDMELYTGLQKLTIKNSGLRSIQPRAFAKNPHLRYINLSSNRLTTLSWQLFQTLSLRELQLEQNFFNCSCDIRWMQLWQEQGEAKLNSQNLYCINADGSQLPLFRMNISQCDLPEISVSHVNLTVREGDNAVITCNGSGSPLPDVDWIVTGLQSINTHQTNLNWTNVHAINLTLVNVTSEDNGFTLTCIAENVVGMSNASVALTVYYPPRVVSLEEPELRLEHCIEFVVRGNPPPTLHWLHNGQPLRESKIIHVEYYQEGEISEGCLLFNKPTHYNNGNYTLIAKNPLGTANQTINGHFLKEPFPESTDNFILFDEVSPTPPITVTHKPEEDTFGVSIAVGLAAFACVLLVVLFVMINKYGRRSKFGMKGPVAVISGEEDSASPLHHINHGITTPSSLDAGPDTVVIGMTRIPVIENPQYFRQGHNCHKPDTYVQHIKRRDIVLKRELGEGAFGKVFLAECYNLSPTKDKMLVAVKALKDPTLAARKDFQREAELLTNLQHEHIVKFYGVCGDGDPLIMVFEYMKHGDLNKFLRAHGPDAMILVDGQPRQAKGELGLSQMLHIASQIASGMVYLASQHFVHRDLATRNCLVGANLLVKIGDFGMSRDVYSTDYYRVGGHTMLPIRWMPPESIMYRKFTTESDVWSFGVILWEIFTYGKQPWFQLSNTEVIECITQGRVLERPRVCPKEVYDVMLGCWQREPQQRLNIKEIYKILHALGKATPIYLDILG

T1 sequence (Q16620 32-822): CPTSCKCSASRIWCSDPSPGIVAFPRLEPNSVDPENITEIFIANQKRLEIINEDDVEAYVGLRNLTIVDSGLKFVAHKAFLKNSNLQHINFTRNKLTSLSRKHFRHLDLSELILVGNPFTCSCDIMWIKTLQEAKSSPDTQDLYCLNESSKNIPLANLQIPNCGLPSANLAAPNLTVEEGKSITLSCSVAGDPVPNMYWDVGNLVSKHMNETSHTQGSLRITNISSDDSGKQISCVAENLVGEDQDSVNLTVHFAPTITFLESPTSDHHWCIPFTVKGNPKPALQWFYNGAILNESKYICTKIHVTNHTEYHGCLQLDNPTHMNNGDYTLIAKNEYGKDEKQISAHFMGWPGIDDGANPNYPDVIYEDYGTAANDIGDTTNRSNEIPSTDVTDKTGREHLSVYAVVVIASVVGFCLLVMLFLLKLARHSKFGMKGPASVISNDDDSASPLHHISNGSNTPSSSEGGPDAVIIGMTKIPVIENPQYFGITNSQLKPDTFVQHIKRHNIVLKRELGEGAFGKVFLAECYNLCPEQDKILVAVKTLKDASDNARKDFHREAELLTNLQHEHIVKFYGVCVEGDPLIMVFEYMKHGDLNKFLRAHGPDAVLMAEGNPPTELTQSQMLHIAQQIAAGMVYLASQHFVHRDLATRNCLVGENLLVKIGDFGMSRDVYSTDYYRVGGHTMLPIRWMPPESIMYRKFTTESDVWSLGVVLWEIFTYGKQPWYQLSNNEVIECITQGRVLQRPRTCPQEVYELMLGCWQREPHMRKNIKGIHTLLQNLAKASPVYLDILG

SMILES	IC50 (TRKB)	IC50 (TRKA)	IC50 (TRKC)	other results
C[C@@H](Nc1ccn2ncc(-c3cnn(C)c3)c2n1)c1cc(F)ccc1OCC(F)F [Compound 2, (R)-N-(1-(2-(2,2-difluoroethoxy)-5-fluorophenyl)ethyl)-3-(1-methyl-1H-pyrazol-4-yl) pyrazolo [1,5-a] pyrimidin-5-amine]	2.8 nM	–	–	AUC(0-t) [1]: 353 ng·h/mL; Cmax [1]: 298 ng/mL; MRT last [1]: 1.49 h; Vd [1]: 6.8 L/kg; clearance [1]: 46 mL/min/kg; half-life [1]: 1.71 h; CL ([2]; oral 5 mg/kg): 168.7 mL/min/kg; Vz ([2]; oral 5 mg/kg): 37.61 L/kg; AUC(0-t) ([2]; plasma, po, 5 mg/kg): 533 ng·h/mL; Cmax ([2]; plasma, po, 5 mg/kg): 150 ng/mL; MRT last ([2]; plasma, po, 5 mg/kg): 2.62 h; Tmax ([2]; plasma, po, 5 mg/kg): 0.67 h; bioavailability ([2]; plasma, po, 5 mg/kg): 30.2%; half-life ([2]; plasma, po, 5 mg/kg): 2.85 h
CC(Nc1ccn2ncc(-c3cnn(C4CCCC4O)c3)c2n1)c1cc(F)ccc1OCC(F)F (stereo not drawn) [Compound 8, 2-(4-(5-((1-(2-(2,2-difluoroethoxy)-5-fluorophenyl)ethyl)amino)pyrazolo [1,5-a]pyrimidin-3-yl)-1H-pyrazol-1-yl) cyclopentan-1-ol]	5.7 nM	5.4 nM	9.8 nM	–
C[C@@H](Nc1ccn2ncc(-c3cnn(C4CCCCO4)c3)c2n1)c1cc(F)ccc1OCC(F)F (stereo partly drawn) [Compound 10, N-((R)-1-(2-(2,2-difluoroethoxy)-5-fluorophenyl)ethyl)-3-(1-(tetrahydro-2H-pyran-2-yl)-1H-pyrazol-4-yl) pyrazolo [1,5-a] pyrimidin-5-amine]	2.7 nM	3.8 nM	5.5 nM	–
CC(Nc1ccn2ncc(-c3cn[nH]c3)c2n1)c1cc(F)cc(F)c1OCC(F)F (stereo not drawn) [Compound 14, N-(1-(2-(2,2-difluoroethoxy)-3,5-difluorophenyl)ethyl)-3-(1H-pyrazol-4-yl) pyrazolo [1,5-a] pyrimidin-5-amine]	4.2 nM	11.3 nM	6.7 nM	–
CC(Nc1ccn2ncc(-c3cn[nH]c3)c2n1)c1ccccc1OCC(F)F (stereo not drawn) [Compound 16, N-(1-(2-(2,2-difluoroethoxy)phenyl)ethyl)-3-(1H-pyrazol-4-yl) pyrazolo [1,5-a] pyrimidin-5-amine]	8.6 nM	8.5 nM	12.2 nM	–
CC(Nc1ccn2ncc(-c3cnn(C)c3)c2n1)c1cc(F)ccc1OC1CCOC1 (stereo not drawn) [Compound a27-41, N-(1-(5-fluoro-2-((tetrahydrofuran-3-yl)oxy)phenyl)ethyl)-3-(1-methyl-1H-pyrazol-4-yl) pyrazolo [1,5-a] pyrimidin-5-amine]	5.8 nM	7.7 nM	7.1 nM	–
CC(Nc1ccn2ncc(-c3cn[nH]c3)c2n1)c1cc(F)ccc1OCF (stereo not drawn) [Compound b3-6, N-(1-(5-fluoro-2-(fluoromethoxy)phenyl)ethyl)-3-(1H-pyrazol-4-yl) pyrazolo [1,5-a] pyrimidin-5-amine]	13 nM	18.1 nM	15.5 nM	–
CC(Nc1ccn2ncc(-c3cn[nH]c3)c2n1)c1cc(F)ccc1OCCCF (stereo not drawn) [Compound b10-34, N-(1-(5-fluoro-2-(3-fluoropropoxy)phenyl)ethyl)-3-(1H-pyrazol-4-yl) pyrazolo [1,5-a] pyrimidin-5-amine]	9.8 nM	9.7 nM	14.1 nM	–
CC(Nc1ccn2ncc(-c3cn[nH]c3)c2n1)c1cc(F)ccc1OC1CCOC1 (stereo not drawn) [Compound b14-40, N-(1-(5-fluoro-2-((tetrahydrofuran-3-yl)oxy)phenyl)ethyl)-3-(1H-pyrazol-4-yl) pyrazolo [1,5-a] pyrimidin-5-amine]	8.6 nM	4.51 nM	11.7 nM	–

More lines, main results first:

IC50 (TRKB)	IC50 (TRKA)	IC50 (TRKC)	SMILES	other results
4.8 nM	5.8 nM	7.1 nM	CC(Nc1ccn2ncc(-c3cnn(C(F)F)c3)c2n1)c1cc(F)ccc1OCC(F)F (stereo not drawn) [Compound 3, N-(1-(2-(2,2-difluoroethoxy)-5-fluorophenyl)ethyl)-3-(1-(difluoromethyl)-1H-pyrazol-4-yl) pyrazolo [1,5-a] pyrimidin-5-amine]	–
15.9 nM	12.2 nM	24.9 nM	CC(Nc1ccn2ncc(-c3cnn(C4CC4)c3)c2n1)c1cc(F)ccc1OCC(F)F (stereo not drawn) [Compound 4, 3-(1-cyclopropyl-1H-pyrazol-4-yl)-N-(1-(2-(2,2-difluoroethoxy)-5-fluorophenyl)ethyl) pyrazolo [1,5-a] pyrimidin-5-amine]	–
1.3 nM	2.4 nM	2.4 nM	C[C@@H](Nc1ccn2ncc(-c3cnn(CC#N)c3)c2n1)c1cc(F)ccc1OCC(F)F [Compound 7]	–
3.5 nM	3.3 nM	4.7 nM	CC(=O)n1cc(-c2cnn3ccc(N[C@H](C)c4cc(F)ccc4OCC(F)F)nc23)cn1 [Compound 12, (R)-1-(4-(5-((1-(2-(2,2-difluoroethoxy)-5-fluorophenyl)ethyl)amino)pyrazolo [1,5-a]pyrimidin-3-yl)-1H-pyrazol-1-yl) ethanone]	–
5.1 nM	10.5 nM	8.5 nM	CC(Nc1ccn2ncc(-c3cnn(C4CCCC4O)c3)c2n1)c1cc(F)ccc1O (stereo not drawn) [Compound a2-3, 4-fluoro-2-(1-((3-(1-(2-hydroxycyclopentyl)-1H-pyrazol-4-yl)pyrazolo [1,5-a]pyrimidin-5-yl)amino)ethyl) phenol]	–
1.5 nM	2.3 nM	15.1 nM	C[C@@H](Nc1ccn2ncc(-c3cnn(C)c3)c2n1)c1cc(F)ccc1OCCF [Compound a10-17, (R)-N-(1-(5-fluoro-2-(2-fluoroethoxy)phenyl)ethyl)-3-(1-methyl-1H-pyrazol-4-yl) pyrazolo [1,5-a] pyrimidin-5-amine]	–
6.7 nM	11.5 nM	9.9 nM	CC(Nc1ccn2ncc(-c3cnn(C)c3)c2n1)c1cc(F)ccc1OCC1CC1 (stereo not drawn) [Compound a26-38, N-(1-(2-(cyclopropylmethoxy)-5-fluorophenyl)ethyl)-3-(1-methyl-1H-pyrazol-4-yl) pyrazolo [1,5-a] pyrimidin-5-amine]	–
3.1 nM	3.37 nM	3.8 nM	CC(Nc1ccn2ncc(-c3cn[nH]c3)c2n1)c1cc(F)ccc1OC(F)F (stereo not drawn) [Compound b4-7, N-(1-(2-(difluoromethoxy)-5-fluorophenyl)ethyl)-3-(1H-pyrazol-4-yl) pyrazolo [1,5-a] pyrimidin-5-amine]	–
4.3 nM	8.4 nM	8.4 nM	CCOc1ccc(F)cc1C(C)Nc1ccn2ncc(-c3cn[nH]c3)c2n1 (stereo not drawn) [Compound b5-11, N-(1-(2-ethoxy-5-fluorophenyl)ethyl)-3-(1H-pyrazol-4-yl) pyrazolo [1,5-a]pyrimidin-5-amine]	–
5.5 nM	6 nM	12.2 nM	CCCOc1ccc(F)cc1C(C)Nc1ccn2ncc(-c3cn[nH]c3)c2n1 (stereo not drawn) [Compound b9-33, N-(1-(5-fluoro-2-propoxyphenyl)ethyl)-3-(1H-pyrazol-4-yl) pyrazolo [1,5-a] pyrimidin-5-amine]	–
5.9 nM	7.9 nM	8 nM	CC(Nc1ccn2ncc(-c3cn[nH]c3)c2n1)c1cc(F)ccc1OC1CCCC1 (stereo not drawn) [Compound b13-39, N-(1-(2-(cyclopentyloxy)-5-fluorophenyl)ethyl)-3-(1H-pyrazol-4-yl) pyrazolo [1,5-a] pyrimidin-5-amine]	–
